Laboratory results taken from patent US9943529B2, “Methods for reducing cellular proliferation and treating certain diseases” (BRIGHAM YOUNG UNIVERSITY, priority 2013, dated 2018).

Legend:
Conditions in all cases: 10 μM, 48 hours
CCRF-CEM = test: NCI screen antiproliferative activity, sulforhodamine B, Leukemia panel; type: cell-based, human
Experimental: (§1) The antiproliferative activity of compounds were determined in the National Cancer Institute (NCI) screen (Drug. Dev. Res. 1995, 34, 91-109; J. Natl. Cancer Inst. 1990, 82, 1107-1112; Drug Dev. Res. 1995, 34, 91-109). For certain compounds, cells of approximately 60 different human cancer cell lines were incubated for 48 hours with five 10-fold dilutions of the tested compounds starting from 100 μM and then treated with sulforhodamine B dye. For other compounds, cells of approximately 60 different human cancer cell lines were incubated for 48 hours with a concentration of 10 μM test compound. The ratios of recorded optical densities relative to that of the control were plotted as a function of the common logarithm of the tested compound concentrations or growth percent (for single concentration tests). The interpolation between the points located above and below the 50% percentage growth provided 50% growth inhibition (GI50) values. Total growth inhibition (TGI) and 50% lethal concentrations (LC50) were also calculated using reported methods. A “-” means not tested and/or not-determined.

HL-60(TB) = test: as above; type: cell-based, human
Experimental: as §1

K-562 = test: as above; type: cell-based, human
MOLT-4 = test: as above; type: cell-based, human
RPMI-8226 = test: as above; type: cell-based, human
SR = test: as above; type: cell-based, human
COLO 205 = test: NCI screen antiproliferative activity, sulforhodamine B, Colon Cancer panel; type: cell-based, human
KM12 = test: as above; type: cell-based, human
SW-620 = test: as above; type: cell-based, human
LOX IMVI = test: NCI screen antiproliferative activity, sulforhodamine B, Melanoma panel; type: cell-based, human
MALME-3M = test: as above; type: cell-based, human
SK-MEL-5 = test: as above; type: cell-based, human
NCI/ADR-RES = test: NCI screen antiproliferative activity, sulforhodamine B, Ovarian Cancer panel; type: cell-based, human
Experimental: as §1

A498 = test: NCI screen antiproliferative activity, sulforhodamine B, Renal Cancer panel; type: cell-based, human
Experimental: as §1

HS 578T = test: NCI screen antiproliferative activity, sulforhodamine B, Breast Cancer panel; type: cell-based, human
MDA-MB-468 = test: as above; type: cell-based, human
Experimental: as §1

A549/ATCC = test system: A549/ATCC
HOP-62 = test system: HOP-62
HOP-92 = test system: HOP-92
NCI-H226 = test system: NCI-H226
NCI-H23 = test system: NCI-H23
NCI-H322M = test system: NCI-H322M
NCI-H460 = test system: NCI-H460
NCI-H522 = test system: NCI-H522
HCC-2998 = test system: HCC-2998
HCT-116 = test system: HCT-116
HCT-15 = test system: HCT-15
HT29 = test system: HT29
SF-268 = test system: SF-268
SF-539 = test system: SF-539
SNB-19 = test system: SNB-19
SNB-75 = test system: SNB-75
M14 = test system: M14
SK-MEL-28 = test system: SK-MEL-28
UACC-62 = test system: UACC-62
IGROV1 = test system: IGROV1
OVCAR-3 = test system: OVCAR-3
OVCAR-4 = test system: OVCAR-4
OVCAR-5 = test system: OVCAR-5
OVCAR-8 = test system: OVCAR-8
SK-OV-3 = test system: SK-OV-3
786-0 = test system: 786-0
ACHN = test system: ACHN
CAKI-1 = test system: CAKI-1
RXF 393 = test system: RXF 393
SN12C = test system: SN12C
TK-10 = test system: TK-10
UO-31 = test system: UO-31
PC-3 = test system: PC-3
DU-145 = test system: DU-145
MCF7 = test system: MCF7
MDA-MB-231/ATCC = test system: MDA-MB-231/ATCC
MDA-MB-435 = test system: MDA-MB-435
BT-549 = test system: BT-549
T-47D = test system: T-47D

SMILES: CCCCCCCCCCCCCCCCNCCCC(C)C1CCC2C3C(OCCCN)CC4CC(OCCCN)CCC4(C)C3CC(OCCCN)C12C.Cl.Cl.Cl.Cl (stereo not shown) [CSA-92]
- Growth Percent (CCRF-CEM): −45.52%
- Growth Percent (HL-60(TB)): 4.50%
- Growth Percent (K-562): −34.68%
- Growth Percent (MOLT-4): −33.70%
- Growth Percent (RPMI-8226): −15.39%
- Growth Percent (SR): 2.63%
- Growth Percent (COLO 205): −40.80%
- Growth Percent (KM12): −24.28%
- Growth Percent (SW-620): −25.31%
- Growth Percent (LOX IMVI): −60.40%
- Growth Percent (MALME-3M): −60.74%
- Growth Percent (SK-MEL-5): 3.14%
- Growth Percent (NCI/ADR-RES): −60.60%
- Growth Percent (A498): −5.88%
- Growth Percent (HS 578T): −34.00%
- Growth Percent (MDA-MB-468): −55.21%
- Growth Percent (A549/ATCC): −57.98%
- Growth Percent (HOP-62): −49.53%
- Growth Percent (HOP-92): −33.16%
- Growth Percent (NCI-H226): −1.42%
- Growth Percent (NCI-H23): −39.72%
- Growth Percent (NCI-H322M): −76.83%
- Growth Percent (NCI-H460): −45.47%
- Growth Percent (NCI-H522): −43.60%
- Growth Percent (HCC-2998): −32.41%
- Growth Percent (HCT-116): −16.64%
- Growth Percent (HCT-15): 7.08%
- Growth Percent (HT29): −40.97%
- Growth Percent (SF-268): −38.18%
- Growth Percent (SF-539): −68.05%
- Growth Percent (SNB-19): −66.56%
- Growth Percent (SNB-75): −64.78%
- Growth Percent (M14): −28.70%
- Growth Percent (SK-MEL-28): −64.73%
- Growth Percent (UACC-62): −64.22%
- Growth Percent (IGROV1): −41.76%
- Growth Percent (OVCAR-3): −10.46%
- Growth Percent (OVCAR-4): −37.10%
- Growth Percent (OVCAR-5): −3.67%
- Growth Percent (OVCAR-8): −48.90%
- Growth Percent (SK-OV-3): −45.67%
- Growth Percent (786-0): −43.08%
- Growth Percent (ACHN): −26.45%
- Growth Percent (CAKI-1): −70.80%
- Growth Percent (RXF 393): −41.21%
- Growth Percent (SN12C): −82.86%
- Growth Percent (TK-10): −60.33%
- Growth Percent (UO-31): −52.51%
- Growth Percent (PC-3): −14.45%
- Growth Percent (DU-145): −82.24%
- Growth Percent (MCF7): −44.27%
- Growth Percent (MDA-MB-231/ATCC): −98.22%
- Growth Percent (MDA-MB-435): −28.31%
- Growth Percent (BT-549): −26.02%
- Growth Percent (T-47D): −20.87%
